Experimental data taken from patent US20190211072A1, “TRI-AGONIST FOR THE GLu, GLP-1 AND NPY2 RECEPTORS” (Syracuse University, priority 2018, published 2019).
Values belong to the molecule of their own block, whether it stands above or below them.

Legend:
GluR = GluR (UniProt P30082); assay: LY2409021 block of GGP817 action in HEK293-GluR cells transduced with H188; type: cell-based; settings: read-out: IC50, block of GGP817 agonist action at the GluR, GGP817 300 nM
Text: (§1) It is increasingly evident that hybrid peptides have the capacity to stimulate multiple GPCRs that participate in metabolic homeostasis.
(§2) This was established by monitoring its ability to stimulate a 60% maximal ΔFRET in the cAMP assay.

GLP-1R = molecular target: T1, GLP-1R (Homo sapiens, UniProt P43220); assay: LY2409021 block of GGP817 action in HEK293-GLP-1R cells transduced with H188; type: cell-based
T1 construct: expressed in transfected cells; host or cells: HEK293-GLP-1R cells transduced with the H188 cAMP FRET reporter
Text: as §1, §2

human NPY2R = molecular target: T2, human NPY2R (Homo sapiens, UniProt P49146); assay: cAMP-lowering action in HEK293-H188-C24 cells transfected with NPY2R (adenosine or forskolin pre-stimulation); type: cell-based; settings: BIIE0246 2 μM; adenosine 2 μM
T2 construct: expressed in transfected cells; host or cells: HEK293-H188-C24 cells
T2 sequence (P49146 1-381): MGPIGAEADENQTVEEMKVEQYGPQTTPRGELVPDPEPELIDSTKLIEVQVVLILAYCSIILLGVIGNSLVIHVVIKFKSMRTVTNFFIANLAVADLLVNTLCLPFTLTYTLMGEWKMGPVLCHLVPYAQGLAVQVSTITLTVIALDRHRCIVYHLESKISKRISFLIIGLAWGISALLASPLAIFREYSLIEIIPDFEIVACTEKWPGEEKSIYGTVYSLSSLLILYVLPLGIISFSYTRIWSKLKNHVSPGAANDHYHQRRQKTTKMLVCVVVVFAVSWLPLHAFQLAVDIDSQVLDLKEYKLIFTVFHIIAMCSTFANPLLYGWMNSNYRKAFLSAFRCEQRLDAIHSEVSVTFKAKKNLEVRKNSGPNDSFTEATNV

[1] = molecular target: T3, human neuropeptide Y2 receptor (NPY2R) (human, UniProt P49146); assay: cell-based or functional assay
T3 sequence: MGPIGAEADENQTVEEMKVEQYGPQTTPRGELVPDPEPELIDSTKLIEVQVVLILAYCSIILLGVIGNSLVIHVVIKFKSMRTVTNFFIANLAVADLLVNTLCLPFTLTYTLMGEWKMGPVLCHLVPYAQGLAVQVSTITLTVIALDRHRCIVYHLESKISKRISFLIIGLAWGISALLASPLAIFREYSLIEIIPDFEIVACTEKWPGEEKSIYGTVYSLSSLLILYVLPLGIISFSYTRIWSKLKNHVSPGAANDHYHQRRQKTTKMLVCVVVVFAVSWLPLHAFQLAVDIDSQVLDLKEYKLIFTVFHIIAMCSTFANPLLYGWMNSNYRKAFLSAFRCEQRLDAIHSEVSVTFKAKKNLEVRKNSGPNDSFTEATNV

T1 sequence (P43220 24-463, species assumed): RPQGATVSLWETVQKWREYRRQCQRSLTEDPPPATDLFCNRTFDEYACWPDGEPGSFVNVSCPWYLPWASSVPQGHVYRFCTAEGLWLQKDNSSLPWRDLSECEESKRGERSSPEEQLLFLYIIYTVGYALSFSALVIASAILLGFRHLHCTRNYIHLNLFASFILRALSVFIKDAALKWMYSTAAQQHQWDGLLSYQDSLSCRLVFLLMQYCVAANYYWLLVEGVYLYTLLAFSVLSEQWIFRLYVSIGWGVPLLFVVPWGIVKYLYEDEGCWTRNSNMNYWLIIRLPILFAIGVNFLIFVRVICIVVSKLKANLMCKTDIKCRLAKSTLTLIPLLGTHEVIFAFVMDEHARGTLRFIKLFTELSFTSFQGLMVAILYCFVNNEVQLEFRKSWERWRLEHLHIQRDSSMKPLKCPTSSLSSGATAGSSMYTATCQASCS

- IC50 (GluR): 908 nM
- IC50 (GLP-1R): 1600 nM
Molecule: Cc1cc(O[C@@H](CCC(F)(F)F)c2ccc(C(=O)NCCC(=O)O)cc2)cc(C)c1-c1ccc(C(C)(C)C)cc1 [LY2409021]

- effect of antagonist on the cAMP-lowering action of GGP817 (human NPY2R): blocked
Molecule: N=C(N)NCCC[C@H](NC(=O)CC1(CC(=O)N2CCN(C3c4ccccc4NC(=O)c4ccccc43)CC2)CCCC1)C(=O)NCCn1c(=O)n(-c2ccccc2)n(-c2ccccc2)c1=O (stereo partly shown) [BIIE0246]

- EC50 of NPY2 receptor agonism (H188 FRET) [1]: ~3000 nM
Molecule: HSQGTFTSDYSKYLDSRRAQDFVQWLMNTRHYLNLVTRQRY (C-terminal amide (-NH2)) [GGP817]
